Reference: US9243076B2 (PIERRE FABRE MEDICAMENT, priority 2004, dated 2016)

Tests used:
[1] = 2:1 (v/v) dioxane:water mixture; cited from earlier work
[2] = Dissolution of the powder in aqueous solution (equivalent of 4 g/l piroxicam, sample after 15 min, HPLC); type: physicochemical; conditions: equivalent of 4 g/l of piroxicam in aqueous solution at 37° C.

Question: Which “pKa value of the enol functional group” value [1] does the source give for CN1C(C(=O)Nc2ccccn2)=C(O)c2ccccc2S1(=O)=O [piroxicam] here?
Answer: The value was roughly 2.

Question: What about the “Dissolution of the piroxicam (g/l)” value [2] of the same compound?
Answer: The value was “less than 0.2 g/l”.

Question: What about the “Dissolution of the piroxicam” value ([2]; listed as Piroxicam) of the same compound?
Answer: The value was less than 0.2 g/L.
